Experimental data taken from US9527885B2, “Hepatitis C virus inhibitors” (BRISTOL-MYERS SQUIBB COMPANY, priority 2011, dated 2016).
Where two headings read alike, the source gives them in different places.

Tests used:
[1] = system: HCV genotype 1a (H77 strain) replicon in HUH-7 cells; test: HCV replicon luciferase reporter assay, genotype 1a; format: cell-based; conditions: Hepatitis C virus, Huh-7, 72 h, 3 days incubation, read-out: LE_1a (EC50, range)
Summary of the method: (§1)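 Twenty-point, threefold compound titrations (0.5% DMSO) were incubated 3 days at 37 °C with 3.0×10^3 HUH-7 cells/well in 4% FCS. The cells stably carried luciferase replicons: genotype 1b Con1 (S1179I) or 1a H77 (NS3 P1496L, NS5A S2204I). Renilla signal was read after 2 h with 7.5 μM EnduRen, and EC50 was taken from a four-parameter logistic fit. Cytotoxicity (CC50) was measured by Cell Titer-Blue, 8 h.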

[2] = system: HCV genotype 1b (Con1) replicon in HUH-7 cells; test: HCV replicon luciferase reporter assay, genotype 1b; format: cell-based; conditions: Hepatitis C virus, 72 h, 3 days incubation, read-out: LE_1b (EC50, range)
Summary of the method: as §1

[3] = HCV genotype 1a replicon luciferase, range class
[4] = HCV genotype 1b replicon luciferase, range class
[5] = HCV genotype 1a replicon luciferase, class symbols
[6] = HCV genotype 1b replicon luciferase, class symbols

Row | SMILES | EC50 [1, 3] [nM] | EC50 [2, 4] [nM] | EC50 [1, 5] [nM] | EC50 [2, 6] [nM] | further results
1 | [2H]C([2H])([2H])C(OC(=O)N[C@@H]1C(=O)N2C[C@H](Oc3nccc4cc(OC)ccc34)C[C@H]2C(=O)N[C@]2(C(=O)NS(=O)(=O)C3(C)CC3)C[C@H]2/C=C\CC[C@H](C)C[C@H]1C)(C([2H])([2H])[2H])C(F)(F)F [Compound 5174, 1,1,1,3,3,3-hexadeutero-2-(trifluoromethyl)propan-2-yl ((2R,6S,7R,9S,13aS,14aR,16aS,Z)-2-((6-methoxyisoquinolin-1-yl)oxy)-7,9-dimethyl-14a-(((1-methylcyclopropyl)sulfonyl)carbamoyl)-5,16-dioxo-1,2,3,5,6,7,8,9,10,11,13a,14,14a,15,16,16a-hexadecahydrocyclopropa[e]pyrrolo[1,2-a][1,4]diazacyclopentadecin-6-yl)carbamate] | < 5.46 | < 5.46 |  |  | 
2 | COc1ccc2c(O[C@@H]3C[C@H]4C(=O)N[C@]5(C(=O)NS(=O)(=O)C6CC6)C[C@H]5/C=C\CC[C@@H](C)C[C@@H](C)[C@H](NC(=O)O[C@@H]5C[C@@H]6C[C@@H]6C5)C(=O)N4C3)nc(-c3ccc(N4CCOCC4)cc3)cc2c1 [Compound 5195, (1R,3r,5S)-bicyclo[3.1.0]hexan-3-yl ((2R,6S,7R,9R,13aS,14aR,16aS,Z)-14a-((cyclopropylsulfonyl)carbamoyl)-2-((6-methoxy-3-(4-morpholinophenyl)isoquinolin-1-yl)oxy)-7,9-dimethyl-5,16-dioxo-1,2,3,5,6,7,8,9,10,11,13a,14,14a,15,16,16a-hexadecahydrocyclopropa[e]pyrrolo[1,2-a][1,4]diazacyclopentadecin-6-yl)carbamate] | < 5.46 | < 5.46 |  |  | 
3 | CCOc1ccc2c(O[C@@H]3C[C@H]4C(=O)N[C@]5(C(=O)NS(=O)(=O)C6(C)CC6)C[C@H]5/C=C\CC[C@H](C)C[C@@H](C)[C@H](NC(=O)O[C@@H]5C[C@@H]6C[C@@H]6C5)C(=O)N4C3)nccc2c1 [Compound 5137, (1R,3r,5S)-bicyclo[3.1.0]hexan-3-yl ((2R,6S,7R,9S,13aS,14aR,16aS,Z)-2-((6-ethoxyisoquinolin-1-yl)oxy)-7,9-dimethyl-14a-(((1-methylcyclopropyl)sulfonyl)carbamoyl)-5,16-dioxo-1,2,3,5,6,7,8,9,10,11,13a,14,14a,15,16,16a-hexadecahydrocyclopropa[e]pyrrolo[1,2-a][1,4]diazacyclopentadecin-6-yl)carbamate] |  |  | < 5.46 | < 5.46 | 
4 | COc1ccc2c(O[C@@H]3C[C@H]4C(=O)N[C@]5(C(=O)NS(=O)(=O)C6(CF)CC6)C[C@H]5/C=C\CC[C@@H](C)C[C@@H](C)[C@H](NC(=O)OC(C)(C)C(F)(F)F)C(=O)N4C3)ccnc2c1 [Compound 4198, 1,1,1-trifluoro-2-methylpropan-2-yl (2R,6S,7R,9R,13aS,14aR,16aS,Z)-14a-(1-(fluoromethyl)cyclopropylsulfonylcarbamoyl)-2-(7-methoxyquinolin-4-yloxy)-7,9-dimethyl-5,16-dioxo-1,2,3,5,6,7,8,9,10,11,13a,14,14a,15,16,16a-hexadecahydrocyclopropa[e]pyrrolo[1,2-a][1,4]diazacyclopentadecin-6-ylcarbamate] |  |  | 4.82 to 103 | < 5.46 | 
5 | CCOc1ccc2c(O[C@@H]3C[C@H]4C(=O)N[C@]5(C(=O)NS(=O)(=O)C6(C)CC6)C[C@H]5/C=C\CC[C@@H](C)C[C@@H](C)[C@H](NC(=O)OC(C)(C)C(F)(F)F)C(=O)N4C3)nccc2c1 [Compound 5136, 1,1,1-trifluoro-2-methylpropan-2-yl ((2R,6S,7R,9R,13aS,14aR,16aS,Z)-2-((6-ethoxyisoquinolin-1-yl)oxy)-7,9-dimethyl-14a-(((1-methylcyclopropyl)sulfonyl)carbamoyl)-5,16-dioxo-1,2,3,5,6,7,8,9,10,11,13a,14,14a,15,16,16a-hexadecahydrocyclopropa[e]pyrrolo[1,2-a][1,4]diazacyclopentadecin-6-yl)carbamate] |  |  | < 5.46 | < 5.46 | 
6 | COc1ccc2c(O[C@@H]3C[C@H]4C(=O)N[C@]5(C(=O)NS(=O)(=O)C6CC6)C[C@H]5/C=C\CC[C@H](C)C[C@@H](C)[C@H](NC(=O)O[C@@H]5C[C@@H]6C[C@@H]6C5)C(=O)N4C3)nc(-c3ccc(OC(C)C)nc3)cc2c1 [Compound 5218, (1R,3r,5S)-bicyclo[3.1.0]hexan-3-yl ((2R,6S,7R,9S,13aS,14aR,16aS,Z)-14a-((cyclopropylsulfonyl)carbamoyl)-2-((3-(6-isopropoxypyridin-3-yl)-6-methoxyisoquinolin-1-yl)oxy)-7,9-dimethyl-5,16-dioxo-1,2,3,5,6,7,8,9,10,11,13a,14,14a,15,16,16a-hexadecahydrocyclopropa[e]pyrrolo[1,2-a][1,4]diazacyclopentadecin-6-yl)carbamate] | < 5.46 | < 5.46 |  |  | 
7 | CC[C@@H]1C[C@H](C)CC/C=C\[C@@H]2C[C@@]2(C(=O)NS(=O)(=O)C2(C)CC2)NC(=O)[C@@H]2C[C@@H](Oc3nccc4cc(OC)c(F)cc34)CN2C(=O)[C@H]1NC(=O)OC(C)(C)C(F)(F)F [Compound 4176, 1,1,1-trifluoro-2-methylpropan-2-yl (2R,6S,7R,9R,13aS,14aR,16aS,Z)-7-ethyl-2-(7-fluoro-6-methoxyisoquinolin-1-yloxy)-9-methyl-14a-(1-methylcyclopropylsulfonylcarbamoyl)-5,16-dioxo-1,2,3,5,6,7,8,9,10,11,13a,14,14a,15,16,16a-hexadecahydrocyclopropa[e]pyrrolo[1,2-a][1,4]diazacyclopentadecin-6-ylcarbamate] |  |  | < 5.46 | < 5.46 | 
8 | COc1ccc2c(O[C@@H]3C[C@H]4C(=O)N[C@]5(C(=O)NS(=O)(=O)C6CC6)C[C@H]5/C=C\CC[C@@H](C)C[C@@H](C)[C@H](NC(=O)O[C@@H]5C[C@@H]6C[C@@H]6C5)C(=O)N4C3)nc(-c3ccc(OC(C)C)nc3)cc2c1 [Compound 5219, (1R,3r,5S)-bicyclo[3.1.0]hexan-3-yl ((2R,6S,7R,9R,13aS,14aR,16aS,Z)-14a-((cyclopropylsulfonyl)carbamoyl)-2-((3-(6-isopropoxypyridin-3-yl)-6-methoxyisoquinolin-1-yl)oxy)-7,9-dimethyl-5,16-dioxo-1,2,3,5,6,7,8,9,10,11,13a,14,14a,15,16,16a-hexadecahydrocyclopropa[e]pyrrolo[1,2-a][1,4]diazacyclopentadecin-6-yl)carbamate] | < 5.46 | < 5.46 |  |  | 
9 | COc1ccc2c(O[C@@H]3C[C@H]4C(=O)N[C@]5(C(=O)NS(=O)(=O)C6(C)CC6)C[C@H]5/C=C\CC[C@@H](C)C[C@@H](C)[C@H](NC(=O)OC(C)(C)C)C(=O)N4C3)ncc(N3CCN(S(C)(=O)=O)CC3)c2c1 [Compound 4121, tert-butyl (2R,6S,7R,9R,13aS,14aR,16aS,Z)-2-(6-methoxy-4-(4-(methylsulfonyl)piperazin-1-yl)isoquinolin-1-yloxy)-7,9-dimethyl-14a-(1-methylcyclopropylsulfonylcarbamoyl)-5,16-dioxo-1,2,3,5,6,7,8,9,10,11,13a,14,14a,15,16,16a-hexadecahydrocyclopropa[e]pyrrolo[1,2-a][1,4]diazacyclopentadecin-6-ylcarbamate] |  |  | < 5.46 | < 5.46 | 
10 | CCOc1ccc2c(O[C@@H]3C[C@H]4C(=O)N[C@]5(C(=O)NS(=O)(=O)C6(C)CC6)C[C@H]5/C=C\CC[C@@H](C)C[C@@H](C)[C@H](NC(=O)O[C@@H]5C[C@@H]6C[C@@H]6C5)C(=O)N4C3)nccc2c1 [Compound 5138, (1R,3r,5S)-bicyclo[3.1.0]hexan-3-yl ((2R,6S,7R,9R,13 aS,14aR,16aS,Z)-2-((6-ethoxyisoquinolin-1-yl)oxy)-7,9-dimethyl-14a-(((1-methylcyclopropyl)sulfonyl)carbamoyl)-5,16-dioxo-1,2,3,5,6,7,8,9,10,11,13a,14,14a,15,16,16a-hexadecahydrocyclopropa[e]pyrrolo[1,2-a][1,4]diazacyclopentadecin-6-yl)carbamate] |  |  | < 5.46 | < 5.46 | 
11 | COc1ccc2c(O[C@@H]3C[C@H]4C(=O)N[C@]5(C(=O)NS(=O)(=O)C6(CF)CC6)C[C@H]5/C=C\CC[C@H](C)C[C@@H](C)[C@H](NC(=O)OC(C)(C)C(F)(F)F)C(=O)N4C3)nc(N(C)C)cc2c1 [Compound 3126, 1,1,1-trifluoro-2-methylpropan-2-yl ((2R,6S,7R,9S,13aS,14aR,16aS,Z)-2-((3-(dimethylamino)-6-methoxyisoquinolin-1-yl)oxy)-14a-(((1-(fluoromethyl)cyclopropyl)sulfonyl)carbamoyl)-7,9-dimethyl-5,16-dioxo-1,2,3,5,6,7,8,9,10,11,13a,14,14a,15,16,16a-hexadecahydrocyclopropa[e]pyrrolo[1,2-a][1,4]diazacyclopentadecin-6-yl)carbamate] |  |  |  |  | EC50 ([1]; HCV genotype 1a replicon luciferase reporter, range class): 4.82 to 103 nM; EC50 ([2]; HCV genotype 1b replicon luciferase reporter, range class): 4.82 to 103 nM
12 | [2H]C([2H])([2H])C(C)(OC(=O)N[C@@H]1C(=O)N2C[C@H](Oc3nccc4cc(OC)ccc34)C[C@H]2C(=O)N[C@]2(C(=O)NS(=O)(=O)C3(C)CC3)C[C@H]2/C=C\CC[C@@H](C)C[C@H]1C)C([2H])([2H])[2H] [Compound 5177, 1,1,1,3,3,3-hexadeutero-2-methylpropan-2-yl ((2R,6S,7R,9R,13aS,14aR,16aS,Z)-2-((6-methoxyisoquinolin-1-yl)oxy)-7,9-dimethyl-14a-(((1-methylcyclopropyl)sulfonyl)carbamoyl)-5,16-dioxo-1,2,3,5,6,7,8,9,10,11,13a,14,14a,15,16,16a-hexadecahydrocyclopropa[e]pyrrolo[1,2-a][1,4]diazacyclopentadecin-6-yl)carbamate] | < 5.46 | < 5.46 |  |  | 
